In publication PMC5397323 (Biopharmaceutics & drug disposition, 2017):
pIC50: −log10 of the molar value.

Assays:
[1] = target: T1, OATP2B1 (Homo sapiens, UniProt O94956); test: Inhibition of OATP2B1-mediated estrone 3-sulfate uptake in MDCKII-OATP2B1 cells; assay type: cell-based; conditions: 0 to 316 μM
T1 sequence (O94956 1-709): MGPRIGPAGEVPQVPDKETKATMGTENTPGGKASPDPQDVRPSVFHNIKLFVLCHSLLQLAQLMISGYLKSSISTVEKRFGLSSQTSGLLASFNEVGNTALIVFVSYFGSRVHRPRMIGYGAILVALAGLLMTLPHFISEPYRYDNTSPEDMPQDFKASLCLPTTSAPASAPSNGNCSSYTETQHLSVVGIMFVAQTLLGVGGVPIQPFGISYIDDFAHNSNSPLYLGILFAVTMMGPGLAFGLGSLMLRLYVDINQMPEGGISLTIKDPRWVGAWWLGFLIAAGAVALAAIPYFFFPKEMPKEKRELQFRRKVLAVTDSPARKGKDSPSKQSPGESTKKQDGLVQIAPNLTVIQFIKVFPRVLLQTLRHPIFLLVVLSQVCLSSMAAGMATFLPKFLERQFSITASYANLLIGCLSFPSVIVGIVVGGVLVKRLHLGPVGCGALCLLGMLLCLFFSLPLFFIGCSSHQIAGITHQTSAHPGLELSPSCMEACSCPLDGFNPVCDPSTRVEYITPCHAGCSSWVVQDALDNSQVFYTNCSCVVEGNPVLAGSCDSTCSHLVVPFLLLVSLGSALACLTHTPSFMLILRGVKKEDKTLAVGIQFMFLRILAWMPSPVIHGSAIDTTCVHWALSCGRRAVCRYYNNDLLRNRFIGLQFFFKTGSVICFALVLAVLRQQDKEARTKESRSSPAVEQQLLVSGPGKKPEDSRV

[2] = target: T1, OATP2B1; conditions: OATP2B1-overexpressing Xenopus laevis oocytes; cited from earlier work

In the case of COc1ccc([C@@H]2CC(=O)c3c(O)cc(O[C@@H]4O[C@H](CO[C@@H]5O[C@@H](C)[C@H](O)[C@@H](O)[C@H]5O)[C@@H](O)[C@H](O)[C@H]4O)cc3O2)cc1O [Hesperidin, hesperidin], the “inhibition at the concentrations tested” value [1] is given as “no inhibition” and the pIC50 [2] is given as 5.72.
